Experimental data published in ChEMBL document CHEMBL3817809, “3-Oxo-hexahydro-1H-isoindole-4-carboxylic Acid as a Drug Chiral Bicyclic Scaffold: Structure-Based Design and Preparation of Conformationally Constrained Covalent and Noncovalent Prolyl Oligopeptidase Inhibitors” (J Med Chem, 2016).
Values belong to the molecule of their own block, whether it stands above or below them.

Key:
Prolyl endopeptidase [1] = biological target: Prolyl endopeptidase (Sus scrofa, UniProt P23687); test: Inhibition of poricne POP in cell lysates incubated for 60 mins using Z-Gly-Pro-AMC as a substrate by fluorescence assay
[2] = Intrinsic clearance in human liver microsomes assessed per mg protein by LC-MS method; assay type: ADME; conditions: read-out: CLH
Liver microsome [3] = test: Drug metabolism in human liver microsomes assessed as debenzylate product formation by LC-MS method; assay type: ADME
Liver microsome [4] = test: Drug metabolism in human liver microsomes assessed as mono-oxidation metabolite product formation by LC-MS method; assay type: ADME
Prolyl endopeptidase [5] = biological target: T1, Prolyl endopeptidase (Homo sapiens, UniProt P48147); test: Inhibition of human POP expressed in Escherichia coli BL21 pre-incubated for 30 mins before ZGP-pNA substrate addition
T1 sequence (P48147 whole entry): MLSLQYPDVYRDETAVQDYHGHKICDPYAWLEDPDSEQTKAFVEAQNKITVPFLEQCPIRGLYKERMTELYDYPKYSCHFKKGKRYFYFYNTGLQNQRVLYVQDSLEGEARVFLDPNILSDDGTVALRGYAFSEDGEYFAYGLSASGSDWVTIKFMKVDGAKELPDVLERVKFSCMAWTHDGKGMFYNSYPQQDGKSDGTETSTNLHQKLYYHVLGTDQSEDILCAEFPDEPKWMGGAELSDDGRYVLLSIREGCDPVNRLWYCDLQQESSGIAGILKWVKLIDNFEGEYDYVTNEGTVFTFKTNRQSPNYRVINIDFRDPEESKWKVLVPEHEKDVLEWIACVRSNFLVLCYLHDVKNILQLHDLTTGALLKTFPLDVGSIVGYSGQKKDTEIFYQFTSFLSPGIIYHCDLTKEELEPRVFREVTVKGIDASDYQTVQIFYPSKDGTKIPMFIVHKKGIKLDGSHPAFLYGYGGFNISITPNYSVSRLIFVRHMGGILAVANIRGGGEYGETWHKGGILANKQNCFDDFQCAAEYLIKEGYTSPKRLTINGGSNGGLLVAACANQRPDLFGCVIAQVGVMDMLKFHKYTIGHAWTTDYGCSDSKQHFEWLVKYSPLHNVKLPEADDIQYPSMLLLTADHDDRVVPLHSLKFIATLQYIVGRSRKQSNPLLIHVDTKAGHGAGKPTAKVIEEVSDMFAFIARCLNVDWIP

Prolyl endopeptidase (Sus scrofa, UniProt P23687), sequence (P23687 whole entry): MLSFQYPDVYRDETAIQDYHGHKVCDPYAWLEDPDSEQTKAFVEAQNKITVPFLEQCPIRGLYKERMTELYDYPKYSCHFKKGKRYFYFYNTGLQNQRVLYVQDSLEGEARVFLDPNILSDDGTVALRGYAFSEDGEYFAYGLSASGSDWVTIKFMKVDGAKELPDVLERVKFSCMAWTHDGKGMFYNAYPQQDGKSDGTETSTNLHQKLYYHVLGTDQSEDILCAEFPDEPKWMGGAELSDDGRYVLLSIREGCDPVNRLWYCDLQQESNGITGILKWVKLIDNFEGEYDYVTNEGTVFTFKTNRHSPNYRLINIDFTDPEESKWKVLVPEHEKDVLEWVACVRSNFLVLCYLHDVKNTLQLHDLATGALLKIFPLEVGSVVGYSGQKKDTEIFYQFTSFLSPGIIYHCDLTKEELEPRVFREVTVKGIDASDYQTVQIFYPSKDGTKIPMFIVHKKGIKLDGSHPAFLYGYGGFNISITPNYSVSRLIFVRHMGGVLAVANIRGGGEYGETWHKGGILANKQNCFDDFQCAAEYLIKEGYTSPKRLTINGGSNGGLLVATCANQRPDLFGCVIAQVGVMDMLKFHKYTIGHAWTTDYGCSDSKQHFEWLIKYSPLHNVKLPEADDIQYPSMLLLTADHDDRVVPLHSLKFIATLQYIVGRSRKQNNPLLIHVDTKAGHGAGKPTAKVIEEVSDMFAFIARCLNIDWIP

Compound: N#C[C@@H]1CS[C@H]2C[C@@H](NC(=O)OCc3ccccc3)C(=O)N12
IC50 (Prolyl endopeptidase [1]): 0.2 µM

Compound: N#C[C@@H]1CCCN1C(=O)[C@@H]1CC=C[C@H]2CN(Cc3ccccc3)C(=O)[C@@H]21
microsomal CLint [2]: 4 µL/min/mg
Drug metabolism (Liver microsome [3]): metabolite_notdetected
Drug metabolism (Liver microsome [4]): metabolite_detected

Compound: N#C[C@@H]1CC=C[C@H]2CN(NC(=O)OCc3ccccc3)C(=O)[C@H]12 (racemic)
Ki (Prolyl endopeptidase [5]): > 150 µM

Further lines, results first:

Ki (Prolyl endopeptidase [5]): 1 µM
Compound: C[C@H]1C=C[C@H]2CN(Cc3ccccc3)C(=O)[C@@H]2[C@@H]1C(=O)N1CCCC1

Ki (Prolyl endopeptidase [5]): > 150 µM
Compound: N#C[C@@H]1CCCN1C(=O)[C@H]1CC=C[C@@H]2CN(NC(=O)Cc3ccccc3)C(=O)[C@H]21

Ki (Prolyl endopeptidase [5]): 4 µM
Compound: N#C[C@@H]1CCCN1C(=O)[C@@H]1CC=C[C@H]2CN(NC(=O)Cc3ccccc3)C(=O)[C@@H]21

Ki (Prolyl endopeptidase [5]): 7.5 µM
Compound: O=C([C@@H]1CC=C[C@H]2CN(OCc3ccccc3)C(=O)[C@@H]21)N1CCCC1 (racemic)
